Activity calls are given as the source filed them. No stated cut-off is given here; in the data, actives have a measured IC50 and inactives only a lower limit.
Each molecule was assayed against Envelope glycoprotein gp160 (Human immunodeficiency virus 1, UniProt Q6QLK5) (assay: cell-free HIV fusion peptide-binding blockers – biochemical, uHTS, fluorescence dequenching, […] (AID 1986)).
Envelope glycoprotein gp160, sequence (Q6QLK5 whole entry, the tested form may be a part): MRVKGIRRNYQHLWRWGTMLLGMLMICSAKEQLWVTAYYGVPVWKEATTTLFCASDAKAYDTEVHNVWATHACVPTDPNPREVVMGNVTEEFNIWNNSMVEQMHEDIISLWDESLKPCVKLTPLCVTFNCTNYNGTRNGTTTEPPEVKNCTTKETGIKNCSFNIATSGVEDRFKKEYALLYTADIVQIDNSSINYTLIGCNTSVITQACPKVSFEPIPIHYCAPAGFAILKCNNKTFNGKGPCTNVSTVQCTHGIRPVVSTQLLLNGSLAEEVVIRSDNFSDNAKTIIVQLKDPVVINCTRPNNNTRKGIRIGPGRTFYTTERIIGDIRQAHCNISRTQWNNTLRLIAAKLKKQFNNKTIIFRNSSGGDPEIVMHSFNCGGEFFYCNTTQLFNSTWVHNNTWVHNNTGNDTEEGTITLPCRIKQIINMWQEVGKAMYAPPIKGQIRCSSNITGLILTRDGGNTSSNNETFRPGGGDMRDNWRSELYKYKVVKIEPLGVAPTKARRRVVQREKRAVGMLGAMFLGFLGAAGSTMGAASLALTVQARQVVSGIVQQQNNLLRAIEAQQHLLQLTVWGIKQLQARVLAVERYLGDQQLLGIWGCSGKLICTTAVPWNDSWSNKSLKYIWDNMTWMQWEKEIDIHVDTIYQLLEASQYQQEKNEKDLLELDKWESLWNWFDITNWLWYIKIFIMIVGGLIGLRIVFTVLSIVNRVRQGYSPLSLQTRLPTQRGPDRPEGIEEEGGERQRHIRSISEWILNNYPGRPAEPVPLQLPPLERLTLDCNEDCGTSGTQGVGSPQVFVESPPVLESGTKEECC
For `O=C(O)c1ccc(Nc2nc(-c3cc4ccccc4oc3=O)cs2)cc1O`, the IC50 was 11.5 µM (active).
With `CCOC(=O)c1sc(N2C(=O)C(O)=C(C(=O)c3ccco3)C2c2ccc([N+](=O)[O-])cc2)nc1C` (stereo not given) the IC50 was 17.6 µM (active).
For `COc1ccccc1OCCOc1ccc(/C=C2\C(=N)N3N=C(S(C)(=O)=O)SC3=NC2=O)cc1`, the IC50 was 33.8 µM (active).
For `O=C(O)CCN1C(=O)/C(=C\c2cccc(OCC(=O)Nc3ccc(Cl)cc3)c2)SC1=S`, the IC50 was 13.2 µM (active).
For `O=C(COc1ccc2ccccc2c1)Nc1cccc(C(=O)Nc2ccccc2C(=O)O)c1`, the IC50 was 14.3 µM (active).

Reference: ChEMBL document CHEMBL1201862, “PubChem BioAssay data set” (2004)
